SMILES strings stand for the structures.

This is an account of results in patent US20260021084A1, “METHOD OF TREATING ORGAN DISEASES OR DISORDERS WITH ASK1 INHIBITORS” (Seal Rock Therapeutics, Inc., priority 2022, published 2026).

Common to all, as to type: in vivo
One series relates to C57Bl/6 male mice. As to the kind of experiment: Efficacy of intravenous ASK1 inhibitor in liver injury due to acute alcoholic hepatitis (pyrazole/LPS model), plasma ALT. To be noted: IV 0.3 and 3 mg/kg twice (3 hours apart), plasma 24 h after LPS. How it is done:
The goal of the study is to evaluate whether IV administered ASK1 inhibitor can reduce liver injury due to acute alcoholic hepatitis (AH).
Seven-day acclimated C57Bl/6 male mice were treated with pyrazole for 2-days to induce CYP2E, prior to ASK1 inhibitor and lipopolysaccharide (LPS) administration. On day 3, ASK1 inhibitor 2-(6-(4-cyclopropyl-4H-1,2,4-triazol-3-yl)pyridin-2-yl)-5-(morpholine-4-carbonyl)isoindolin-1-one was administered by IV injection via tail vein at 0.3 and 3 mg/kg or vehicle twice (3 hours apart). LPS was administered intraperitoneally 30 min after the first dose of 2-(6-(4-cyclopropyl-4H-1,2,4-triazol-3-yl)pyridin-2-yl)-5-(morpholine-4-carbonyl)isoindolin-1-one. LPS administration emulates the inflammation by gut bacteria penetrating the intestinal wall following binge drinking. 24 h after LPS administration, plasma was collected for ALT analysis to estimate reduction of liver injury following intravenous treatment with ASK1 inhibitor.

The nature of series [1]: Organ distribution of ASK1 inhibitor in rats after oral administration. To be noted: male, Sprague-Dawley, rat, single oral 300 mg/kg. How it is done:
The objective of this study was to investigate organ (liver, heart, kidney) distribution of ASK1 inhibitor in male Sprague Dawley rats following a single oral (PO) administration at a dose of 300 mg/kg. Three rats are administered orally with suspension formulation of ASK1 inhibitor 2-(6-(4-cyclopropyl-4H-1,2,4-triazol-3-yl)pyridin-2-yl)-5-(morpholine-4-carbonyl)isoindolin-1-one in a formulation of 0.1% Tween 80 and 99.9% HPMC (0.5% w/v in water) at 300 mg/kg dose.
(§1) Blood samples (approximately 120 μL) were collected under light isoflurane anesthesia from retro orbital plexus from a set of three rats at 1 h post PO administration. Immediately after blood collection, plasma was harvested by centrifugation at 4000 rpm, 10 min at […] and samples were stored at −70±10° C. until bioanalysis. Animals were sacrificed immediately followed by abdominal vena-cava cut open and whole body was perfused from heart using 10 mL of normal saline. After isolation, tissue samples were rinsed three times in ice cold normal saline (for 5-10 seconds/rinsed using ˜5-10 mL normal saline in disposable petri dish for each rinse, dried on blotting paper and weighed. Tissue (liver, heart, kidney) samples were homogenized using ice-cold phosphate buffer saline (pH−7.4). Total homogenate volume was five times the tissue weight. All homogenates were stored below −70±10° C. until bioanalysis.
(§2) Plasma, liver, heart, kidney, pancreas, spleen, and skin samples were quantified by fit-for-purpose LC-MS/MS method.

The nature of series [2]: Organ distribution of ASK1 inhibitor in rats after intravenous administration. To be noted: male, Sprague-Dawley, rat, single IV 10 mg/kg. How it is done:
The objective of this study was to investigate organ (liver, heart, kidney, pancreas, spleen and skin) distribution of ASK1 inhibitor in male Sprague Dawley rats following a single intravenous (IV) administration at a dose of 10 mg/kg. Three rats are administered intravenously with a solution formulation of ASK1 inhibitor 2-(6-(4-cyclopropyl-4H-1,2,4-triazol-3-yl)pyridin-2-yl)-5-(morpholine-4-carbonyl)isoindolin-1-one in 5% NMP, 15% Solutol HS-15, 20% PEG-400 and 60% HpBetaCD at 10 mg/kg dose. 2-(6-(4-Cyclopropyl-4H-1,2,4-triazol-3-yl)pyridin-2-yl)-5-(morpholine-4-carbonyl)isoindolin-1-one was prepared as described in US2018/0291002 which is herein incorporated by reference in its entirety.
as §1, with “IV injection.” for “PO administration.”, “kidney, pancreas, spleen and skin)” for “kidney)”
as §2

[3] abbreviates: heart / plasma, read-out: Tissue-to-plasma ratio, Heart.
Setting [4] is: kidney / plasma, read-out: Tissue-to-plasma ratio, Kidney.
Setting [5] is: liver / plasma, read-out: Tissue-to-plasma ratio, Liver.

Regarding `O=C(c1ccc2c(c1)CN(c1cccc(-c3nncn3C3CC3)n1)C2=O)N1CCOCC1` [2-(6-(4-cyclopropyl-4H-1,2,4-triazol-3-yl)pyridin-2-yl)-5-(morpholine-4-carbonyl)isoindolin-1-one], the “lowered plasma ALT levels” value in the series on C57Bl/6 male mice was 74-85%. The Kp at 1 h in series [1] (setting [3]) was 1.13; in series [1] (setting [4]) it was 7.47; in series [1] (setting [5]), 13.8; in series [2] (setting [3]), 1.11; in series [2] (setting [4]), 5.99; in series [2] (setting [5]) it was 9.37. The Kp at 1 h in series [2] (pancreas / plasma, read-out: Tissue-to-plasma ratio, Pancreas) worked out at 0.99; in series [2] (skin / plasma, read-out: Tissue-to-plasma ratio, Skin), 0.46; in series [2] (spleen / plasma, read-out: Tissue-to-plasma ratio, Spleen), 0.89.
